# Reference: publication PMC4710522, “A Novel Triazolopyridine-Based Spleen Tyrosine Kinase Inhibitor That Arrests Joint Inflammation” (PLoS ONE, 2016)
# Legend:
# Assay in all cases: SelectScreen kinase assay
# Assay type in all cases: biochemical
# BRAF = target: T1, BRAF (Homo sapiens, UniProt P15056); settings: 100 µM ATP, read-out: % control
# T1 construct: purchased Life Technologies (Invitrogen) SelectScreen, Z'-LYTE / Adapta
# How it was run: (§1)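 With compound constant at 3 µM, kinase activity was determined by Z'-Lyte or Adapta at KM ATP or at 10 or 100 µM ATP. Uninhibited DMSO-only wells defined 100% control.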
# BTK_h = target: T2, BTK_h (Homo sapiens, UniProt Q06187); settings: KM ATP, read-out: % control
# T2 construct: purchased Life Technologies (Invitrogen) SelectScreen, Z'-LYTE / Adapta
# How it was run: as §1
# CDK2_cyclinA_h = target: T3, CDK2_cyclinA_h (Homo sapiens, UniProt P24941); settings: KM ATP, read-out: % control
# T3 construct: purchased Life Technologies (Invitrogen) SelectScreen, Z'-LYTE / Adapta
# How it was run: as §1
# CDK9_h = target: T4, CDK9_h (Homo sapiens, UniProt P50750); settings: KM ATP, read-out: % control
# T4 construct: purchased Life Technologies (Invitrogen) SelectScreen, Z'-LYTE / Adapta
# How it was run: as §1
# CK1-alpha1_h = target: T5, CK1-alpha1_h (Homo sapiens, UniProt P48729); settings: KM ATP, read-out: % control
# T5 construct: purchased Life Technologies (Invitrogen) SelectScreen, Z'-LYTE / Adapta
# How it was run: as §1
# CK1-delta_h = target: T6, CK1-delta_h (Homo sapiens, UniProt P48730); settings: KM ATP, read-out: % control
# T6 construct: purchased Life Technologies (Invitrogen) SelectScreen, Z'-LYTE / Adapta
# How it was run: as §1
# DCAMKL2_h = target: T7, DCAMKL2_h (Homo sapiens, UniProt Q8N568); settings: KM ATP, read-out: % control
# T7 construct: purchased Life Technologies (Invitrogen) SelectScreen, Z'-LYTE / Adapta
# How it was run: as §1
# DYRK1B_h = target: T8, DYRK1B_h (Homo sapiens, UniProt Q9Y463); settings: KM ATP, read-out: % control
# T8 construct: purchased Life Technologies (Invitrogen) SelectScreen, Z'-LYTE / Adapta
# How it was run: as §1
# EGFR_L858R_h = target: T9, EGFR_L858R_h (Homo sapiens, UniProt P00533, L858R); settings: KM ATP, read-out: % control
# T9 construct: purchased Life Technologies (Invitrogen) SelectScreen, Z'-LYTE / Adapta
# How it was run: as §1
# EphA4_h = target: T10, EphA4_h (Homo sapiens, UniProt P54764); settings: KM ATP, read-out: % control
# T10 construct: purchased Life Technologies (Invitrogen) SelectScreen, Z'-LYTE / Adapta
# How it was run: as §1
# EphA8_h = target: T11, EphA8_h (Homo sapiens, UniProt P29322); settings: KM ATP, read-out: % control
# T11 construct: purchased Life Technologies (Invitrogen) SelectScreen, Z'-LYTE / Adapta
# How it was run: as §1
# FGFR1_h = target: T12, FGFR1_h (Homo sapiens, UniProt P11362); settings: KM ATP, read-out: % control
# T12 construct: purchased Life Technologies (Invitrogen) SelectScreen, Z'-LYTE / Adapta
# How it was run: as §1
# HIPK4_h = target: T13, HIPK4_h (Homo sapiens, UniProt Q8NE63); settings: KM ATP, read-out: % control
# T13 construct: purchased Life Technologies (Invitrogen) SelectScreen, Z'-LYTE / Adapta
# How it was run: as §1
# Hgk_h = target: T14, Hgk_h (Homo sapiens, UniProt O95819); settings: KM ATP, read-out: % control
# T14 construct: purchased Life Technologies (Invitrogen) SelectScreen, Z'-LYTE / Adapta
# How it was run: as §1
# IKK-beta_h = target: T15, IKK-beta_h (Homo sapiens, UniProt O14920); settings: KM ATP, read-out: % control
# T15 construct: purchased Life Technologies (Invitrogen) SelectScreen, Z'-LYTE / Adapta
# How it was run: as §1
# JAK2_h = JAK2_h (Homo sapiens, UniProt O60674)
# How it was run: as §1
# Ltk_h = target: T16, Ltk_h (Homo sapiens, UniProt P29376); settings: KM ATP, read-out: % control
# T16 construct: purchased Life Technologies (Invitrogen) SelectScreen, Z'-LYTE / Adapta
# How it was run: as §1
# MARK4_h = target: T17, MARK4_h (Homo sapiens, UniProt Q96L34); settings: KM ATP, read-out: % control
# T17 construct: purchased Life Technologies (Invitrogen) SelectScreen, Z'-LYTE / Adapta
# How it was run: as §1
# MINK_h = target: T18, MINK_h (Homo sapiens, UniProt Q8N4C8); settings: KM ATP, read-out: % control
# T18 construct: purchased Life Technologies (Invitrogen) SelectScreen, Z'-LYTE / Adapta
# How it was run: as §1
# MST1_h = target: T19, MST1_h (Homo sapiens, UniProt Q13043); settings: KM ATP, read-out: % control
# T19 construct: purchased Life Technologies (Invitrogen) SelectScreen, Z'-LYTE / Adapta
# How it was run: as §1
# MST2_h = target: T20, MST2_h (Homo sapiens, UniProt Q13188); settings: KM ATP, read-out: % control
# T20 construct: purchased Life Technologies (Invitrogen) SelectScreen, Z'-LYTE / Adapta
# How it was run: as §1
# MST4_h = target: T21, MST4_h (Homo sapiens, UniProt Q9P289); settings: KM ATP, read-out: % control
# T21 construct: purchased Life Technologies (Invitrogen) SelectScreen, Z'-LYTE / Adapta
# How it was run: as §1
# PAK6_h = target: T22, PAK6_h (Homo sapiens, UniProt Q9NQU5); settings: KM ATP, read-out: % control
# T22 construct: purchased Life Technologies (Invitrogen) SelectScreen, Z'-LYTE / Adapta
# How it was run: as §1
# PAK7_h = target: T23, PAK7_h (Homo sapiens, UniProt Q9P286); settings: KM ATP, read-out: % control
# T23 construct: purchased Life Technologies (Invitrogen) SelectScreen, Z'-LYTE / Adapta
# How it was run: as §1
# PKB-beta_h = target: T24, PKB-beta_h (Homo sapiens, UniProt P31751); settings: KM ATP, read-out: % control
# T24 construct: purchased Life Technologies (Invitrogen) SelectScreen, Z'-LYTE / Adapta
# How it was run: as §1
# PRAK_h = target: T25, PRAK_h (Homo sapiens, UniProt Q8IW41); settings: KM ATP, read-out: % control
# T25 construct: purchased Life Technologies (Invitrogen) SelectScreen, Z'-LYTE / Adapta
# How it was run: as §1
# PTK2B_h = target: T26, PTK2B_h (Homo sapiens, UniProt Q14289); settings: KM ATP, read-out: % control
# T26 construct: purchased Life Technologies (Invitrogen) SelectScreen, Z'-LYTE / Adapta
# How it was run: as §1
# Plk1_h = target: T27, Plk1_h (Homo sapiens, UniProt P53350); settings: KM ATP, read-out: % control
# T27 construct: purchased Life Technologies (Invitrogen) SelectScreen, Z'-LYTE / Adapta
# How it was run: as §1
# ROCK-I_h = target: T28, ROCK-I_h (Homo sapiens, UniProt Q13464); settings: KM ATP, read-out: % control
# T28 construct: purchased Life Technologies (Invitrogen) SelectScreen, Z'-LYTE / Adapta
# How it was run: as §1
# Ros_h = target: T29, Ros_h (Homo sapiens, UniProt P08922); settings: KM ATP, read-out: % control
# T29 construct: purchased Life Technologies (Invitrogen) SelectScreen, Z'-LYTE / Adapta
# How it was run: as §1
# Rse_h = target: T30, Rse_h (Homo sapiens, UniProt Q06418); settings: KM ATP, read-out: % control
# T30 construct: purchased Life Technologies (Invitrogen) SelectScreen, Z'-LYTE / Adapta
# How it was run: as §1
# SGK3_h = target: T31, SGK3_h (Homo sapiens, UniProt Q96BR1); settings: KM ATP, read-out: % control
# T31 construct: purchased Life Technologies (Invitrogen) SelectScreen, Z'-LYTE / Adapta
# How it was run: as §1
# c-RAF_h = target: T32, c-RAF_h (Homo sapiens, UniProt P04049); settings: 100 µM ATP, read-out: % control
# T32 construct: purchased Life Technologies (Invitrogen) SelectScreen, Z'-LYTE / Adapta
# How it was run: as §1
# mTOR_h = target: T33, mTOR_h (Homo sapiens, UniProt P42345); settings: KM ATP, read-out: % control
# T33 construct: purchased Life Technologies (Invitrogen) SelectScreen, Z'-LYTE / Adapta
# How it was run: as §1
# Sequence of JAK2_h (O60674 whole entry): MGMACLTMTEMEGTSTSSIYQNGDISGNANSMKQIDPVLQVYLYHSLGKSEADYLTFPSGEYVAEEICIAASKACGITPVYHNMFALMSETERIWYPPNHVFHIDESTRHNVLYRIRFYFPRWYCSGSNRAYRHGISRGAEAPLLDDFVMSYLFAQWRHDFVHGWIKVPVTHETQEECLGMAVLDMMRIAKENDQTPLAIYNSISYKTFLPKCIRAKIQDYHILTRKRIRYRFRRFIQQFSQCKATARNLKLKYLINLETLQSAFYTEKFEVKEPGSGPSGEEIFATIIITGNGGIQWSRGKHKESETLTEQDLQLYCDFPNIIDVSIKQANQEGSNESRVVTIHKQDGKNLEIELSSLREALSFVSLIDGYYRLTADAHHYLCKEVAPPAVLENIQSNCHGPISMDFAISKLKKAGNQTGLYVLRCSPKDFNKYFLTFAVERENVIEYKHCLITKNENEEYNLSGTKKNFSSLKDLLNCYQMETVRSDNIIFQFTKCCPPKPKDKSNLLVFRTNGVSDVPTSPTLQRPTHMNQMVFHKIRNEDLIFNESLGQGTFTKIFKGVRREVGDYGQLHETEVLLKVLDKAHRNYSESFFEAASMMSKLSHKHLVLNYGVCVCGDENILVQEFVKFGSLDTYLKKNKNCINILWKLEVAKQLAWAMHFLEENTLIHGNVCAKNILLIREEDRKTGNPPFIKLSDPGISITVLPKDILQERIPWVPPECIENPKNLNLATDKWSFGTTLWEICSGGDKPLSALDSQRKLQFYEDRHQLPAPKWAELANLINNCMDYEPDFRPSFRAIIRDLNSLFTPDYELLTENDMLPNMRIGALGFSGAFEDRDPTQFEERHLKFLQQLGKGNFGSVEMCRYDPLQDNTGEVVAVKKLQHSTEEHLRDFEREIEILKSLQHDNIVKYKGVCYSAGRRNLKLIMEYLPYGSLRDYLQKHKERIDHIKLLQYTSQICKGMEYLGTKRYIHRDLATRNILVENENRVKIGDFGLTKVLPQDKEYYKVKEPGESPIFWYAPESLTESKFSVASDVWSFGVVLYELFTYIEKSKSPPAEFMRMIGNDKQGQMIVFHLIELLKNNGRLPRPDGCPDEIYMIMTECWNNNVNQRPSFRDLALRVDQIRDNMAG
# T11 sequence (P29322 28-1005): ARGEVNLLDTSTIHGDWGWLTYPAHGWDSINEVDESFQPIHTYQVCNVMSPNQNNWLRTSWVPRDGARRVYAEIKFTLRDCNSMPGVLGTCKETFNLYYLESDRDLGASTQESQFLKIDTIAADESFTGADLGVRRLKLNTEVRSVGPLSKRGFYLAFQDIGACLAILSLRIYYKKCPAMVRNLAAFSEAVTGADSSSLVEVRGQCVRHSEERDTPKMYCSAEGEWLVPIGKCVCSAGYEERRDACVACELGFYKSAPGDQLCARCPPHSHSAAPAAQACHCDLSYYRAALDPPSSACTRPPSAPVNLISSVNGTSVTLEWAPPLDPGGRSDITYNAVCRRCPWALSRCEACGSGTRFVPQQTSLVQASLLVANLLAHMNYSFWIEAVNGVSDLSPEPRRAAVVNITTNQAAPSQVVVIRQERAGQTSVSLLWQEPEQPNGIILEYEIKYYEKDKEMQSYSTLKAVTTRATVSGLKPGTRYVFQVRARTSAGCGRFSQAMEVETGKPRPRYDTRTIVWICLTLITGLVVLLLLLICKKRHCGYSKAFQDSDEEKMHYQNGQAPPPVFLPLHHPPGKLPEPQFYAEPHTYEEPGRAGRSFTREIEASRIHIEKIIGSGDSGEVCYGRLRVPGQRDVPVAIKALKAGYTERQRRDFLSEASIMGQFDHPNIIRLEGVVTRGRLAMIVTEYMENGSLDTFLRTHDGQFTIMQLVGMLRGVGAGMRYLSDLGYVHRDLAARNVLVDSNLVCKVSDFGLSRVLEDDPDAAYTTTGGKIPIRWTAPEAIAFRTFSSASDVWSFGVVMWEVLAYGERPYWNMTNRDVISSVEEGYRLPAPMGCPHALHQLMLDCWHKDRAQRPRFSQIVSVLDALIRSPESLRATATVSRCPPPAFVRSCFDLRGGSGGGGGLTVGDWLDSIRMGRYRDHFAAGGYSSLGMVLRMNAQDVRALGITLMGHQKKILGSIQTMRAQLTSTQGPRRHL
# T19 sequence (Q13043 whole entry): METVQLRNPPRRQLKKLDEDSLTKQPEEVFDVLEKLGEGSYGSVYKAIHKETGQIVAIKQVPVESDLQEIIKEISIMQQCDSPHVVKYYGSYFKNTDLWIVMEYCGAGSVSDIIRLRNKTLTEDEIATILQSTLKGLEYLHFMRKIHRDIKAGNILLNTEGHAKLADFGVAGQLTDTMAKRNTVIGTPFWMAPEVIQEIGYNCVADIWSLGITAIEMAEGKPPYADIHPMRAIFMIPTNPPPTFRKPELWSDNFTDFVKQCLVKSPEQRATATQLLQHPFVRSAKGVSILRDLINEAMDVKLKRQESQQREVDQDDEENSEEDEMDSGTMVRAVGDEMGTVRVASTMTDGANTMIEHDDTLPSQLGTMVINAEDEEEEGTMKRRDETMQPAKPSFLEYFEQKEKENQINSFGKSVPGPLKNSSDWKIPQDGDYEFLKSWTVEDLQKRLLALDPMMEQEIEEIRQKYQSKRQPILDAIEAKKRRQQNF
# T8 sequence (Q9Y463 whole entry): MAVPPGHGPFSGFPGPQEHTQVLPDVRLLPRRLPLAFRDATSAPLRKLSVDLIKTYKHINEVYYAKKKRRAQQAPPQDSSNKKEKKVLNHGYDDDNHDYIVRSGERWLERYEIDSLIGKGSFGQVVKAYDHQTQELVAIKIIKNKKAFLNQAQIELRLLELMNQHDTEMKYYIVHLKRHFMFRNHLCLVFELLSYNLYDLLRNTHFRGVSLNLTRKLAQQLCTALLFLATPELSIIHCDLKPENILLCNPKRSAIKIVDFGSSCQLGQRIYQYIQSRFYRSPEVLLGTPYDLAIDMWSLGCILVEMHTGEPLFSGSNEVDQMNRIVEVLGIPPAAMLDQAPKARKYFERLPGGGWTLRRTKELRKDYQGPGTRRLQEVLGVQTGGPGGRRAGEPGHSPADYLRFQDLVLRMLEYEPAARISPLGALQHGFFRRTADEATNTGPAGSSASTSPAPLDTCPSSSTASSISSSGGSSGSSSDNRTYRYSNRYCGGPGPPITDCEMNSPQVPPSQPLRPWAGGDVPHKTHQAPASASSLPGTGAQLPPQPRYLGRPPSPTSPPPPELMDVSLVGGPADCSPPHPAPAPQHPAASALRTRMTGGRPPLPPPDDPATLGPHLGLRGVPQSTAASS
# T23 sequence (Q9P286 whole entry): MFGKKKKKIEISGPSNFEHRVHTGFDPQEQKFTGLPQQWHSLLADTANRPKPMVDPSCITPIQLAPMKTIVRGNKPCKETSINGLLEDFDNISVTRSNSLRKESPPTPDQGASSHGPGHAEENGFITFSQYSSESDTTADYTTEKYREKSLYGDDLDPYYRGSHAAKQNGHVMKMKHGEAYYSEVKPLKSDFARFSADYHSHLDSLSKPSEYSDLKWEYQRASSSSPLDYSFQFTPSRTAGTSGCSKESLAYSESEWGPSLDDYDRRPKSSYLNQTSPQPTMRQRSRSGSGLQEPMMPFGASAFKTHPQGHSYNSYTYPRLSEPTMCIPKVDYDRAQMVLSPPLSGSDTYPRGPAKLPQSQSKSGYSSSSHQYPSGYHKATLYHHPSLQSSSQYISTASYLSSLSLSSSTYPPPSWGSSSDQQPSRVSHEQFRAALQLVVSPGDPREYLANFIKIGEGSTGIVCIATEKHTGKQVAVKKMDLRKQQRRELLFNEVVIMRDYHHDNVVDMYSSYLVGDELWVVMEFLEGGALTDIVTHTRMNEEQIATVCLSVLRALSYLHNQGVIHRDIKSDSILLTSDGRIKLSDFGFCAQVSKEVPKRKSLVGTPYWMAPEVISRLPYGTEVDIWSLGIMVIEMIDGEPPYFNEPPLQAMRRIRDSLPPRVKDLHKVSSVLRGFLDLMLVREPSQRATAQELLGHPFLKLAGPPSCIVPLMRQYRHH
# T13 sequence (Q8NE63 whole entry): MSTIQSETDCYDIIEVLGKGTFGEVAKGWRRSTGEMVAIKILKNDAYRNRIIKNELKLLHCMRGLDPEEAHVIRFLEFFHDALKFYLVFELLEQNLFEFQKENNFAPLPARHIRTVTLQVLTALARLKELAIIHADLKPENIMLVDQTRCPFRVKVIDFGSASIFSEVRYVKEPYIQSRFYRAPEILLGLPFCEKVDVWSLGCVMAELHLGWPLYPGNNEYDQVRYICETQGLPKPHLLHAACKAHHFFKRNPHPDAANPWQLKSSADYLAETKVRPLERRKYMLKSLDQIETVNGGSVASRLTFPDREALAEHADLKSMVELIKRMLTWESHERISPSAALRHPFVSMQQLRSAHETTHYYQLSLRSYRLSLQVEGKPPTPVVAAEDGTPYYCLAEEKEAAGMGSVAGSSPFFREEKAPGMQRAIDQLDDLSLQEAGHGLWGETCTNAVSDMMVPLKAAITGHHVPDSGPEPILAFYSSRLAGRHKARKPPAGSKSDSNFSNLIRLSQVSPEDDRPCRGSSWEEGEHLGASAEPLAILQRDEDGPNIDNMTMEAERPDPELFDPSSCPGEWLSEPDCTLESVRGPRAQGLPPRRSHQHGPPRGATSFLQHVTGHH
# T25 sequence (Q8IW41 whole entry): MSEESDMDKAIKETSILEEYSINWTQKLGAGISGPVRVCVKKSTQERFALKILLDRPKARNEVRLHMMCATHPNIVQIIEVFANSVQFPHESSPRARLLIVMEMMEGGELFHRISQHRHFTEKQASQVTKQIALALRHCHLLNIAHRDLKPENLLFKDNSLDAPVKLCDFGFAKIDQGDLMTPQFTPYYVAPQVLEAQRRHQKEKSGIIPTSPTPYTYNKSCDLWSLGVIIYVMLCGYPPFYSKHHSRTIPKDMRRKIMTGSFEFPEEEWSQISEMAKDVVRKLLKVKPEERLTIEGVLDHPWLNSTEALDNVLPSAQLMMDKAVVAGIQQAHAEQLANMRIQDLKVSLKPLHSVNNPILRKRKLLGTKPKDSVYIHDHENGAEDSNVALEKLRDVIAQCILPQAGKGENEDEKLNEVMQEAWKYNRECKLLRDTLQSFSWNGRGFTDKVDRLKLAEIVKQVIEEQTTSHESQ
smiles,measurement,setting,value
"c1cc(CC2CCOCC2)n2nc(Nc3ccc4c(NC5CCOCC5)n[nH]c4c3)nc2c1 [CC-509, [3-(2H-3,4,5,6-tetrahydropyran-4-ylamino)(1H-indazol-6-yl)][5-(2H-3,4,5,6-tetrahydropyran-4-ylmethyl)(2H-1,2,4-triazolo[1,5-a]pyridin-2-yl)]amine]",remaining activity at 3 µM,BRAF,83%
same,remaining activity at 3 µM,BTK_h,72%
same,remaining activity at 3 µM,CDK2_cyclinA_h,64%
same,remaining activity at 3 µM,CDK9_h,31%
same,remaining activity at 3 µM,CK1-alpha1_h,88%
same,remaining activity at 3 µM,CK1-delta_h,88%
same,remaining activity at 3 µM,DCAMKL2_h,98%
same,remaining activity at 3 µM,DYRK1B_h,95%
same,remaining activity at 3 µM,EGFR_L858R_h,101%
same,remaining activity at 3 µM,EphA4_h,76%
same,remaining activity at 3 µM,EphA8_h,91%
same,remaining activity at 3 µM,FGFR1_h,69%
same,remaining activity at 3 µM,HIPK4_h,100%
same,remaining activity at 3 µM,Hgk_h,62%
same,remaining activity at 3 µM,IKK-beta_h,99%
same,remaining activity at 3 µM,"JAK2_h; 3 µM, KM ATP, read-out: % control",4%
same,IC50,"JAK2_h; 10-point dose-response, commercial vendor",18.9 nM
same,remaining activity at 3 µM,Ltk_h,71%
same,remaining activity at 3 µM,MARK4_h,33%
same,remaining activity at 3 µM,MINK_h,55%
same,remaining activity at 3 µM,MST1_h,65%
same,remaining activity at 3 µM,MST2_h,46%
same,remaining activity at 3 µM,MST4_h,99%
same,remaining activity at 3 µM,PAK6_h,91%
same,remaining activity at 3 µM,PAK7_h,86%
same,remaining activity at 3 µM,PKB-beta_h,98%
same,remaining activity at 3 µM,PRAK_h,91%
same,remaining activity at 3 µM,PTK2B_h,50%
same,remaining activity at 3 µM,Plk1_h,88%
same,remaining activity at 3 µM,ROCK-I_h,70%
same,remaining activity at 3 µM,Ros_h,74%
same,remaining activity at 3 µM,Rse_h,53%
same,remaining activity at 3 µM,SGK3_h,87%
same,remaining activity at 3 µM,c-RAF_h,70%
same,remaining activity at 3 µM,mTOR_h,92%
